Experimental data from ChEMBL document CHEMBL1201862, “PubChem BioAssay data set” (2004).
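Step 1: Grow cells in 96-well plates. Step 2: Expose to compound for 48 hours at 5 concentrations. Step 3: Interpolate endpoints linearly; if unreached, use highest concentration. At the GI50, growth is halved.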 Calls of active or inactive are those of the source. No stated cut-off is given here; in the data, active = GI50 up to about 1.1 µM and inactive = higher.

Experiments:
Assay in all cases: DTP human tumour cell line panel, 48 h
[1] = system: CAKI-1
[2] = system: MDA-N
[3] = system: UACC-257
[4] = system: MDA-MB-231
[5] = system: HCT-15
[6] = system: MCF7
[7] = system: HCT-116
[8] = system: T47D
[9] = system: 786-0
[10] = system: PC-3
[11] = system: M14
[12] = system: OVCAR-5
[13] = system: SW-620
[14] = system: CCRF-CEM
[15] = system: NCI/ADR-RES
[16] = system: LOX IMVI
[17] = system: HOP-62
[18] = system: K562
[19] = system: EKVX
[20] = system: RXF 393

SMILES	GI50 [1]	GI50 [2]	GI50 [3]	GI50 [4]	GI50 [5] [µM]	GI50 [6]	GI50 [7]	GI50 [8]	GI50 [9]	GI50 [10]	GI50 [11]	GI50 [12]	GI50 [13]	GI50 [14]	GI50 [15]	GI50 [16]	GI50 [17]	GI50 [18]	GI50 [19]	GI50 [20]
C/C=C(/C)C(=O)O[C@H]1CCN2CC=C(COC(=O)[C@@](O)([C@H](C)OC)C(C)(C)O)[C@H]12	> 100 µM (inactive)	> 100 µM (inactive)	> 100 µM (inactive)	> 100 µM (inactive)	> 100	> 100 µM (inactive)	> 100 µM (inactive)	> 100 µM (inactive)	> 100 µM (inactive)	> 100 µM (inactive)	> 100 µM (inactive)	> 100 µM (inactive)	> 100 µM (inactive)	> 100 µM (inactive)	> 100 µM (inactive)	> 100 µM (inactive)	> 100 µM (inactive)	> 100 µM (inactive)	> 100 µM (inactive)	–
NC(=O)CNC(=O)[C@@H]1C[C@@H](OCCC(=O)O)CN1C(=O)OCc1ccccc1	–	> 100 µM (inactive)	> 100 µM (inactive)	> 100 µM (inactive)	> 100	> 100 µM (inactive)	> 100 µM (inactive)	> 100 µM (inactive)	> 100 µM (inactive)	> 100 µM (inactive)	> 100 µM (inactive)	> 100 µM (inactive)	> 100 µM (inactive)	> 100 µM (inactive)	> 100 µM (inactive)	> 100 µM (inactive)	> 100 µM (inactive)	> 100 µM (inactive)	> 100 µM (inactive)	> 100 µM (inactive)
COc1cccc([C@H]2CC(=O)c3cc4c(cc3N2)OCO4)c1	0.384 µM (active)	0.0789 µM (active)	0.91 µM (active)	0.424 µM (active)	0.341	0.552 µM (active)	0.352 µM (active)	> 100 µM (inactive)	0.418 µM (active)	0.275 µM (active)	0.237 µM (active)	0.441 µM (active)	0.428 µM (active)	0.49 µM (active)	0.296 µM (active)	0.714 µM (active)	0.568 µM (active)	1.3 µM (inactive)	–	0.171 µM (active)
NC(=O)c1nnc2cc(F)ccc2c1N	91.2 µM (inactive)	> 100 µM (inactive)	> 100 µM (inactive)	> 100 µM (inactive)	> 100	> 100 µM (inactive)	> 100 µM (inactive)	> 100 µM (inactive)	> 100 µM (inactive)	> 100 µM (inactive)	> 100 µM (inactive)	> 100 µM (inactive)	> 100 µM (inactive)	> 100 µM (inactive)	> 100 µM (inactive)	78.3 µM (inactive)	> 100 µM (inactive)	> 100 µM (inactive)	85.7 µM (inactive)	–
O[C@@]1(C#Cc2ccc3c(c2)OCO3)CCC[C@H]1NCc1ccccc1	28.4 µM (inactive)	16.9 µM (inactive)	24.2 µM (inactive)	24.9 µM (inactive)	19.1	22.5 µM (inactive)	–	18.7 µM (inactive)	17.5 µM (inactive)	19.2 µM (inactive)	15.7 µM (inactive)	34.8 µM (inactive)	31.4 µM (inactive)	33.8 µM (inactive)	16.7 µM (inactive)	15.6 µM (inactive)	26.5 µM (inactive)	18.7 µM (inactive)	33.5 µM (inactive)	24.3 µM (inactive)
O/N=C\c1c2c(cc3c1CCC3)CCC2	> 100 µM (inactive)	> 100 µM (inactive)	> 100 µM (inactive)	> 100 µM (inactive)	> 100	> 100 µM (inactive)	> 100 µM (inactive)	49.5 µM (inactive)	> 100 µM (inactive)	> 100 µM (inactive)	> 100 µM (inactive)	> 100 µM (inactive)	> 100 µM (inactive)	> 100 µM (inactive)	> 100 µM (inactive)	> 100 µM (inactive)	> 100 µM (inactive)	> 100 µM (inactive)	> 100 µM (inactive)	–
